The values below come from patent US7413747B2, “Transdermal therapeutic system for treating Parkinsonism” (LTS Lohmann Therapie-Systeme AG, priority 1998, dated 2008).

The nature of data set [1]: Solubility of the active substance in polyacrylate adhesives. In kind it is physicochemical. Conditions: polyacrylate adhesive matrix; ambient temperature. The source says: (§1) The transdermal therapeutic system according to this invention, of the kind mentioned at the beginning and developed in accordance with the above, is essentially characterized by a matrix on the basis of an acrylate-based or silicone-based non-aqueous polymer adhesive system having a solubility for the free D2-agonist base (−)-5,6,7,8-tetrahydro-6-[propyl-[2-(2-thienyl)ethyl]amino]-1-naphthalenol of >5% (w/w), which matrix is substantially free of inorganic silicate particulates. The solubility is determined at ambient temperature.
In systems wherein the active substance is only partially dissolved the concentration of the dissolved active substance is equal to the saturation concentration and thus has the maximum thermodynamic activity under these conditions. In general, it is, above all, the kind and quantity of the free functional groups in the adhesive which are important for the dissolving capacity of the polyacrylate adhesives. […] Such a system must therefore contain the active substance in a concentration of at least 10% (w/w) in order to come sufficiently near to the maximal thermodynamic activity. For the hydrochloride of (−)-5,6,7,8-tetrahydro-6-[propyl-[2-(2-thienyl)ethyl]amino]-1-naphthalenol the solubility in polyacrylates having 5-10% (w/w) is much lower, so that in such systems the active substance is preferably only partially dissolved.

The nature of data set [2]: Solubility (saturation capacity) of the active substance in silicone adhesives. In kind it is physicochemical. Conditions: for saturation capacity in silicone adhesives: silicone adhesive without solubility-increasing additive.
Description: as §1
This is sufficient to dissolve 10 mg active substance in a 20 cm^2 large patch having a coat weight of the matrix of 50 g/m^2. Since with transdermal patch systems one must always assume that only about 50% of the active substance employed will be available during the period of application, given a daily dose in the range of 1-10 mg of the active substance a plaster size of between 2 and 40 cm^2 can be expected to be sufficient to achieve therapeutic plasma levels.

Data set [3] in a line: Permeation studies utilizing Franz diffusion cells and human epidermis. In kind it is in vitro ADME. The settings on record: skin, due to hydrophilic properties. From the text:
The finished plasters were used in permeation studies utilizing Franz diffusion cells and human epidermis. It will be seen that all plasters are capable of systemically providing a sufficient amount of active substance through the skin. […] It will also be seen that the silicone adhesive-based plasters, although having a considerably lower active substance content, deliver approximately the same quantity of active substance via the skin as the systems based on polyacrylate adhesives.

As to `CCCN(CCc1cccs1)C1CCc2c(O)cccc2C1.Cl` (single isomer, unassigned; (-)) [(−)-5,6,7,8-tetrahydro-6-[propyl-[2-(2-thienyl)ethyl]amino]-1-naphthalenol hydrochloride], in data set [1], the “solubility in polyacrylate adhesives” value is given as 5-10 % (w/w). For the same compound, in data set [2], the “saturation capacity in silicone adhesives” value is reported as “practically insoluble”. Besides, the “passing the barrier of the stratum corneum” value in data set [3] is “only poorly”.

`CCCN(CCc1cccs1)C1CCc2c(O)cccc2C1` (single isomer, unassigned; (-)) [(−)-5,6,7,8-tetrahydro-6-[propyl-[2-(2-thienyl)ethyl]amino]-1-naphthalenol]: the “solubility in polyacrylate adhesives” value in data set [1] is 15-35 % (w/w). In data set [2] (about 1.5-5% (w/w) of polyvinylpyrrolidone in the adhesive), the “solubility in amine-resistant silicone adhesive” value is recorded as 10-15 % (w/w). In addition, in data set [2] (silicone adhesive admixed with a substance having increased solubility for the active substance (e.g. polyvinylpyrrolidone)), the “dissolving capacity for the free base in silicone adhesive matrices” value is “up to 40 % (w/w)”. Moreover, the “saturation capacity in silicone adhesives” value in data set [2] is “about 5 % (w/w)”.
